According to PubChem BioAssay AID202 (DTP/NCI, 2004):
“And” between values parts separate entries of the source, which are not always exact repeats. Identical values can stand only once.

System: HT29 xenograft, nude mice, s.c., tumor weight T/C%
Assay: NCI In Vivo Anticancer Drug Screen. Data for tumor model HT29;CX-1 Human Adenocarcinoma (MER+) (subcutaneous) in NU/NU Swiss (nude) mice
Settings: endpoint: optimum tumor weight change, higher = larger tumour
Procedure: The antitumor activity of compounds was measured in mice bearing transplantable tumors. Survival or tumor size were measured and the results are expressed as the measurement made in the treated group (T) divided by the measurement made in the vehicle treated control group (C). The tumor model used in this assay is HT29;CX-1 Human Adenocarcinoma (MER+) (subcutaneous) in NU/NU Swiss (nude) mice

[1] = dose: 25.0 mg/kg/injection, schedule: Q04DX003 (ip), vehicle: Klucel (hydroxypropylcellulose) (HPC)
[2] = dose: 50.0 mg/kg/injection, schedule: Q04DX003 (ip), vehicle: Klucel (hydroxypropylcellulose) (HPC)
[3] = dose: 100.0 mg/kg/injection, schedule: Q04DX003 (ip), vehicle: Klucel (hydroxypropylcellulose) (HPC)
[4] = dose: 100.0 mg/kg/injection, schedule: Q04DX003 (ip), vehicle: saline with Tween-80
[5] = dose: 200.0 mg/kg/injection, schedule: Q04DX003 (ip), vehicle: saline with Tween-80

Q: Which results are given for `Cc1c(N)nc(C(CC(N)=O)NCC(N)C(N)=O)nc1C(=O)NC(C(=O)NC(C)C(O)CC(=O)NC(C(=O)NC(OC1OC(C)C(N)C(O)C1O)C(O)c1nc(-c2nc(C(=O)NCCCC(N)CC(=O)NCCCNCCCCN)cs2)cs1)C(C)O)C(OC1OC(CO)C(O)C(O)C1OC1OC(CO)C(O)C(OC(N)=O)C1O)c1cnc[nH]1` (stereo not given)?
A: T/C (dose: 0.5 mg/kg/injection, schedule: Q04DX003 (ip), vehicle: saline): 92 % of control; T/C (dose: 1.0 mg/kg/injection, schedule: Q04DX003 (ip), vehicle: saline): 45 % of control; T/C (dose: 2.0 mg/kg/injection, schedule: Q04DX003 (ip), vehicle: saline): 39 % of control

Q: How did the T/C [1] turn out when `CCOC(=O)C1C2OC(=O)C(C(=O)C2CN(CCCl)CCCl)C1C1CC=C(CC2=CCC(C3C4C(=O)OC(C(CN(CCCl)CCCl)C4=O)C3C(=O)OCC)CC2)CC1` (stereo not given) was run?
A: The T/C was 91 % of control.

Q: What about the T/C [2] of the same compound?
A: The T/C was 66 % of control.

Q: And the T/C [3]?
A: Its T/C is 69 % of control.

Q: `NC(=O)c1ccc[n+](Cc2c(Cl)cccc2Cl)c1` was tested. Which T/C (dose: 48.0 mg/kg/injection, schedule: Q04DX003 (ip), vehicle: saline) did it give?
A: The T/C was 122 % of control.

Q: How did the T/C (dose: 9.0 mg/kg/injection, schedule: Q04DX003 (ip), vehicle: saline) turn out when `CC[C@](O)(C(=O)O)c1cc2n(c(=O)c1CO)Cc1cc3ccccc3nc1-2` was run?
A: The T/C was 36 % of control.

Q: For `COc1cccc2c1C(=O)c1c(O)c3c(c(O)c1C2=O)C[C@@](O)(C(=O)CO)C[C@@H]3OC1CC(N)C(OC)C(C)O1` (stereo not given in full), which T/C (dose: 1.56 mg/kg/injection, schedule: Q04DX003 (ip), vehicle: saline) is on record?
A: The T/C was 80 % of control.

Q: What does the source list for `CC(=O)OCC1OC(n2cc(CBr)nn2)C(OC(C)=O)C(OC(C)=O)C1OC(C)=O` (stereo not given)?
A: T/C (dose: 50.0 mg/kg/injection, schedule: Q04DX003 (ip), vehicle: saline with Tween-80): 78 % of control; T/C [4]: 92 % of control; T/C [5]: 69 % of control

Q: `C1CCC2[N-]CC3CCCCC3[N-]CC3CCCCC3[N-]CC3CCCCC3[N-]CC2C1.[Cu]` (stereo not given) was tested. Which T/C (dose: 3.13 mg/kg/injection, schedule: Q04DX003 (ip), vehicle: Klucel (hydroxypropylcellulose) (HPC)) did it give?
A: Its T/C is 62 % of control.

Q: What about the T/C (dose: 6.25 mg/kg/injection, schedule: Q04DX003 (ip), vehicle: Klucel (hydroxypropylcellulose) (HPC)) of the same compound?
A: Its T/C is 90 % of control.

Q: What about the T/C (dose: 12.5 mg/kg/injection, schedule: Q04DX003 (ip), vehicle: Klucel (hydroxypropylcellulose) (HPC)) of the same compound?
A: Its T/C is 70 % of control.

Q: And the T/C [1]?
A: Its T/C is 94 % of control.

Q: What does the source list for `O=C1N(Cl)C(=O)C(c2ccc(Cl)cc2)(c2ccc(Cl)cc2)N1Cl`?
A: T/C [4]: 103 % of control; T/C [5]: 108 % of control

Q: With `CCCC(=O)OCc1cc(=O)n(C)c2c3c4c(cc12)c(C)cc(=O)n4CO3` as the compound, how does the T/C [2] read?
A: Its T/C is 53 % of control.

Q: For `CCCCNCCCNCCCNC(=O)c1csc(-c2csc(CCNC(=O)C(NC(=O)C(C)C(O)C(C)NC(=O)C(NC(=O)c3nc(C(CC(N)=O)NCC(N)C(N)=O)nc(N)c3C)C(OC3OC(CO)C(O)C(O)C3OC3OC(CO)C(O)C(OC(N)=O)C3O)c3cnc[nH]3)C(C)O)n2)n1` (stereo not given), which T/C (dose: 7.5 mg/kg/injection, schedule: Q04DX003 (ip), vehicle: saline) is on record?
A: The T/C was 75 % of control.

Q: What about the T/C (dose: 15.0 mg/kg/injection, schedule: Q04DX003 (ip), vehicle: saline) of the same compound?
A: Its T/C is 28 % of control.

Q: What about the T/C (dose: 15.0 mg/kg/injection, schedule: Q04DX004 (ip), vehicle: saline) of the same compound?
A: The T/C was 40 % of control.

Q: And the T/C (dose: 30.0 mg/kg/injection, schedule: Q04DX003 (ip), vehicle: saline)?
A: Its T/C is 19 % of control and 33 % of control.

Q: What about the T/C (dose: 30.0 mg/kg/injection, schedule: Q04DX004 (ip), vehicle: saline) of the same compound?
A: The T/C was 38 % of control.

Q: And the T/C (dose: 60.0 mg/kg/injection, schedule: Q04DX003 (ip), vehicle: saline)?
A: The T/C was 20 % of control.

Q: What about the T/C (dose: 60.0 mg/kg/injection, schedule: Q04DX004 (ip), vehicle: saline) of the same compound?
A: Its T/C is 18 % of control.

Q: What about the T/C (dose: 120.0 mg/kg/injection, schedule: Q04DX003 (ip), vehicle: saline) of the same compound?
A: The T/C was 2 % of control.

Q: What does the source list for `CC(CN1CC(=O)NC(=O)C1)N1CC(=O)NC(=O)C1` (stereo not given)?
A: T/C (dose: 50.0 mg/kg/injection, schedule: Q04DX003 (ip), vehicle: suspension in saline): 73 % of control; T/C (dose: 100.0 mg/kg/injection, schedule: Q04DX003 (ip), vehicle: suspension in saline): 50 % of control; T/C (dose: 200.0 mg/kg/injection, schedule: Q04DX003 (ip), vehicle: suspension in saline): 57 % of control

Q: For `O=C[C@@H](CO)O[C@H](C=O)n1cnc2c(=O)[nH]cnc21`, which T/C (dose: 100.0 mg/kg/injection, schedule: Q04DX003 (ip), vehicle: saline) is on record?
A: The T/C was 57 % of control.

Q: And the T/C (dose: 200.0 mg/kg/injection, schedule: Q04DX003 (ip), vehicle: saline)?
A: The T/C was 85 % of control.

Q: And the T/C (dose: 400.0 mg/kg/injection, schedule: Q04DX003 (ip), vehicle: saline)?
A: Its T/C is 48 % of control.

Q: `CS(=O)(=O)OCCN(CCOS(C)(=O)=O)c1ccc(C=Nc2ccc(-c3csc(COc4ccccc4)n3)cc2)cc1` was tested. Which T/C [3] did it give?
A: Its T/C is 71 % of control.

Q: What about the T/C (dose: 200.0 mg/kg/injection, schedule: Q04DX003 (ip), vehicle: Klucel (hydroxypropylcellulose) (HPC)) of the same compound?
A: The T/C was 70 % of control.

Q: For `CN(C)c1nc(N(C)C)nc(N(C)C)n1`, which T/C (dose: 60.0 mg/kg/injection, schedule: Q07DX005 (ip), vehicle: Klucel (hydroxypropylcellulose) (HPC)) is on record?
A: Its T/C is 91 % of control and 114 % of control.

Q: What about the T/C (dose: 120.0 mg/kg/injection, schedule: Q01DX005 (ip), vehicle: Klucel (hydroxypropylcellulose) (HPC)) of the same compound?
A: Its T/C is 38 % of control and 47 % of control.

Q: What about the T/C (dose: 120.0 mg/kg/injection, schedule: Q07DX005 (ip), vehicle: Klucel (hydroxypropylcellulose) (HPC)) of the same compound?
A: Its T/C is 72 % of control and 78 % of control.

Q: And the T/C (dose: 240.0 mg/kg/injection, schedule: Q04DX005 (ip), vehicle: Klucel (hydroxypropylcellulose) (HPC))?
A: The T/C was 27 % of control and 38 % of control.

Q: What about the T/C (dose: 240.0 mg/kg/injection, schedule: Q07DX005 (ip), vehicle: Klucel (hydroxypropylcellulose) (HPC)) of the same compound?
A: The T/C was 37 % of control.

Q: With `COC1C(O)CC(OC2CC(OC3CC(O[C@@H]4C(=O)c5c(cc6cc(OC7CC(OC8CC(O)C(O)C(C)O8)C(O)C(C)O7)c(C)c(O)c6c5O)C[C@H]4[C@H](OC)C(=O)[C@@H](O)[C@@H](C)O)OC(C)C3O)OC(C)C2O)OC1C` (stereo not given in full) as the compound, how does the T/C (dose: 1.5 mg/kg/injection, schedule: Q04DX003 (ip), vehicle: saline) read?
A: The T/C was 52 % of control.

Q: For `O=S(CCCl)CCCl`, which T/C [1] is on record?
A: The T/C was 72 % of control.

Q: And the T/C [2]?
A: The T/C was 51 % of control.

Q: And the T/C [3]?
A: Its T/C is 65 % of control.

Q: With `Cc1c(CNc2ccc(C(=O)NC(CC(=O)O)C(=O)O)cc2)ccc2nc(N)nc(N)c12` (stereo not given) as the compound, how does the T/C (dose: 3.0 mg/kg/injection, schedule: Q04DX003 (ip), vehicle: saline with Tween-80) read?
A: Its T/C is 109 % of control.

Q: And the T/C (dose: 6.0 mg/kg/injection, schedule: Q04DX003 (ip), vehicle: saline with Tween-80)?
A: Its T/C is 153 % of control.

Q: And the T/C (dose: 12.0 mg/kg/injection, schedule: Q04DX003 (ip), vehicle: saline with Tween-80)?
A: Its T/C is 92 % of control.

Q: For `COc1cc([C@@H]2c3cc4c(c(O)c3C[C@H]3COC(=O)[C@@H]32)OCO4)cc(OC)c1OC`, which T/C (dose: 2.5 mg/kg/injection, schedule: Q04DX003 (ip), vehicle: saline) is on record?
A: Its T/C is 83 % of control.

Q: What about the T/C (dose: 5.0 mg/kg/injection, schedule: Q04DX003 (ip), vehicle: saline) of the same compound?
A: Its T/C is 114 % of control.

Q: And the T/C (dose: 10.0 mg/kg/injection, schedule: Q04DX003 (ip), vehicle: saline)?
A: Its T/C is 52 % of control.

Q: What does the source list for `Cc1c(N)nc([C@H](CC(N)=O)NC[C@H](N)C(N)=O)nc1C(=O)N[C@H](C(=O)N[C@H](C)[C@@H](O)CC(=O)N[C@H](C(=O)NC(O[C@@H]1O[C@@H](C)[C@@H](N)[C@@H](O)[C@H]1O)C(O)c1nc(-c2nc(C(=O)NCCCCN)cs2)cs1)[C@@H](C)O)[C@@H](O[C@@H]1O[C@@H](CO)[C@@H](O)[C@H](O)[C@@H]1O[C@H]1O[C@H](CO)[C@@H](O)[C@H](OC(N)=O)[C@@H]1O)c1c[nH]cn1` (stereo not given in full)?
A: T/C (dose: 4.0 mg/kg/injection, schedule: Q04DX003 (ip), vehicle: saline): 47 % of control; T/C (dose: 8.0 mg/kg/injection, schedule: Q04DX003 (ip), vehicle: saline): 27 % of control; T/C (dose: 16.0 mg/kg/injection, schedule: Q04DX003 (ip), vehicle: saline): 7 % of control

Q: Which results are given for `O=C(O)CP(=O)(O)O`?
A: T/C (dose: 800.0 mg/kg/injection, schedule: Q04DX003 (ip), vehicle: saline): 94 % of control; T/C (dose: 1600.0 mg/kg/injection, schedule: Q04DX003 (ip), vehicle: saline): 66 % of control
